Results published in patent US20200338094A1, “Use of a Heterocyclic Bcl-xL Inhibitor and Related Analogs for Removing Senescent Cells in the Treatment of Eye Diseases and Other Age-Related Conditions” (Unity Biotechnology, Inc., priority 2015, published 2020).
Blank lines part the entries; values can stand above or below the compound they belong to.

What was measured:
Bcl-xL = biological target: T1, Bcl-xL (Homo sapiens, UniProt Q07817); assay: Bcl inhibition homogeneous (AlphaScreen) binding assay, Bcl-xL; conditions: read-out: Binding Affinities (Ki ± SD) Bcl-xL
T1 construct: purchased Sigma-Aldrich Co., St. Louis, Mo
T1 sequence (Q07817 whole entry, species assumed): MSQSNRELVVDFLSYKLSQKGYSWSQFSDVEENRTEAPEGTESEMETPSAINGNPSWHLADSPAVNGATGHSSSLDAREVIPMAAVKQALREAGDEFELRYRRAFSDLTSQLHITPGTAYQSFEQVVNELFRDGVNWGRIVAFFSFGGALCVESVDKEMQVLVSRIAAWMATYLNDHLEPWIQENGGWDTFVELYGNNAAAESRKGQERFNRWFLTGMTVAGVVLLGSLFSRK
Description: (§1) This assay uses a homogenous assay technology based on oxygen channeling that is marketed by PerkinElmer Inc., Waltham, Mass.: see Eglen et al., Current Chemical Genomics, 2008, 1, 2-10. The test compound is combined with the target Bcl protein and a peptide representing the corresponding cognate ligand, labeled with biotin. The mixture is then combined with streptavidin bearing luminescent donor beads and luminescent acceptor beads, which proportionally reduces luminescence if the compound has inhibited the peptide from binding to the Bcl protein.
(§2) Bcl-2, Bcl-xL and Bcl-W are available from Sigma-Aldrich Co., St. Louis, Mo. Biotinylated BIM peptide (ligand for Bcl-2) and BAD peptide (ligand for Bcl-xL) are described in pre-grant publication US 2016/0038503 A1. AlphaScreen® Streptavidin donor beads and Anti-6×His AlphaLISA® acceptor beads are available from PerkinElmer.
(§3) To conduct the assay, a 1:4 dilution series of the compound is prepared in DMSO, and then diluted in assay buffer. In a 96-well PCR plate, the following are combined: 10 μL peptide, 10 μL test compound, and 10 μL BCL protein. The assay plate is incubated in the dark at room temperature for 24 h. The next day, donor beads and acceptor beads are combined, and […] is added to each well. After incubating in the dark for 30 minute, luminescence is measured using a plate reader, and the affinity or degree of inhibition by each test compound is determined.
(§4) The chosen compounds were further assayed to quantitatively determine the actual affinity for Bcl-xL, Bcl-2, and Bcl-w with a view to identifying candidate senolytic agents for use in treating age related conditions. FIGS. 2A, 2B, and 2C show the results of the binding assay, with those compounds towards the left of each graph having the highest affinity.

[1] = test system: senescent fibroblasts (SnCs), IMR90 cells; assay: Senolytic activity: killing senescent (irradiated) IMR90 fibroblasts, CellTiter-Glo; format: cell-based, human; conditions: for EC50: killing senescent (irradiated) fibroblasts in culture, read-out: Best SnCs EC50; for SI (specificity for senescent cells): senescent vs non-senescent cells of the same tissue type; for senolytic potency (EC50), in words: killing senescent cells
Description: Human fibroblast IMR90 cells can be obtained from the American Type Culture Collection (ATCC®) with the designation CCL-186. The cells are maintained at <75% confluency in DMEM containing FBS and Pen/Strep in an atmosphere of 3% O2, 10% CO2, and 95% humidity. The cells are divided into three groups: irradiated cells (cultured for 14 days after irradiation prior to use), proliferating normal cells (cultured at low density for one day prior to use), and quiescent cells (cultured at high density for four day prior to use).
On day 0, the irradiated cells are prepared as follows. IMR90 cells are washed, placed in T175 flasks at a density of 50,000 cells per mL, and irradiated at 10-15 Gy. Following irradiation, the cells are plated at […] in 96-well plates. On days 1, 3, 6, 10, and 13, the medium in each well is aspirated and replaced with fresh medium.
On day 10, the quiescent healthy cells are prepared as follows. IMR90 cells are washed, covered with 3 mL of TrypLE trypsin-containing reagent (Thermofisher Scientific, Waltham, Mass.) and cultured for 5 min until the cells have rounded up and begin to detach from the plate. Cells are dispersed, counted, and prepared in medium at a concentration of 50,000 cells per mL. 100 µL of the cells is plated in each well of a 96-well plate. Medium is changed on day 13.
On day 13, the proliferating healthy cell population is prepared as follows. Healthy IMR90 cells are washed, covered with 3 mL of TrypLE and cultured for 5 minutes until the cells have rounded up and begin to detach from the plate. Cells are dispersed, counted, and prepared in medium at a concentration of 25,000 cells per mL. 100 µL of the cells is plated in each well of a 96-well plate.
On day 14, test senolytic agents are combined with the cells as follows. A DMSO dilution series of each test compound is prepared at 200 times the final desired concentration in a 96-well PCR plate. Immediately before use, the DMSO stocks are diluted 1:200 into prewarmed complete medium. Medium is aspirated from the cells in each well, and 100 µL/well of the compound containing medium is added.
The test senolytic agents are cultured with the cells for 6 days, replacing the culture medium with fresh medium and the same compound concentration on day 17. Bcl-2 inhibitors such as those tested in the examples that follow are cultured with the cells for 3 days. The assay system uses the properties of a thermostable luciferase to enable reaction conditions that generate a stable luminescent signal while simultaneously inhibiting endogenous ATPase released during cell lysis. At the end of the culture period, 100 µL of CellTiter-Glo@ reagent (Promega Corp., Madison, Wis.) is added to each of the wells. The cell plates are placed for 30 seconds on an orbital shaker, and luminescence is measured.
Furthermore, even if the compound is potent, it would not be suitable for use as a therapeutic unless it preferentially kills senescent cells with a high degree of selectivity. Accordingly, compounds in the library showing high Bcl binding affinity were further screened for their ability to kill irradiated fibroblasts, in comparison with replicating fibroblasts or fibroblasts that were quiescent (due to confluence) but not senescent.

Bcl-2 = biological target: T2, Bcl-2 (Homo sapiens, UniProt P10415); assay: Bcl inhibition homogeneous (AlphaScreen) binding assay, Bcl-2; conditions: read-out: Binding Affinities (Ki ± SD) Bcl-2
T2 construct: purchased Sigma-Aldrich Co., St. Louis, Mo
T2 sequence (P10415 whole entry, species assumed): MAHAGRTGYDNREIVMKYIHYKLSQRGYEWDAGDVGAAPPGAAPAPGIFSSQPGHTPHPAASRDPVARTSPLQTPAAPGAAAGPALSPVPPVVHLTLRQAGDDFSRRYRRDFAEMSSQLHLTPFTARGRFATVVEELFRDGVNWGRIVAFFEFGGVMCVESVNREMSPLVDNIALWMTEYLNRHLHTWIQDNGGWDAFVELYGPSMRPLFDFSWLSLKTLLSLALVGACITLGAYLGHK
Description: as §1, §2, §3, §4

Bcl-w = biological target: T3, Bcl-w (Homo sapiens, UniProt Q92843); assay: Bcl inhibition homogeneous (AlphaScreen) binding assay, Bcl-w; conditions: read-out: Binding Affinities (Ki ± SD) Bcl-w
T3 construct: purchased Sigma-Aldrich Co., St. Louis, Mo
T3 sequence (Q92843 1-193): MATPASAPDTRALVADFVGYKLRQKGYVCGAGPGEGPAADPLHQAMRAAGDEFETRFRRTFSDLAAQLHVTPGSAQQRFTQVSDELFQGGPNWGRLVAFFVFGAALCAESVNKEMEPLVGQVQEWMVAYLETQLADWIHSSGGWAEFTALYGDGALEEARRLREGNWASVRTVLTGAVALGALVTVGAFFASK
Description: as §1, §2, §3, §4

Bcl isoforms = assay: Binding affinity for the Bcl isoforms; conditions: Bcl-xL, Bcl-2, Bcl-w
Description: as §1, §2, §3, §4

SMILES: CCn1c(C)c(S(C)(=O)=O)c(-c2cc(F)cc(N3CCN(c4ccc(NS(=O)(=O)c5ccc(N[C@H](CCN6CCC(O)CC6)CSc6ccccc6)c(S(=O)(=O)C(F)(F)F)c5)cc4)CC3)c2)c1-c1ccc(F)cc1 [BM-1192]
EC50 [1]: 50000 pM | SI (specificity for senescent cells) [1]: 60.0

SMILES: Cc1c(S(C)(=O)=O)c(-c2cc(F)cc(N3CCN(c4ccc(NS(=O)(=O)c5ccc(N[C@H](CCN6CCC(O)CC6)CSc6ccccc6)c(S(=O)(=O)C(F)(F)F)c5)cc4)CC3)c2)c(-c2ccc(F)cc2)n1C(C)C [BM-1195]
Ki (Bcl-xL): 149 pM | binding affinities (Ki) for the Bcl isoforms, in words (Bcl isoforms): nanomole to picomole range | EC50 [1]: 6000 pM | senolytic potency (EC50), in words [1]: potent in the nanomole range | SI (specificity for senescent cells) [1]: 128.7 | Ki (Bcl-2): 667 pM | Ki (Bcl-w): 175 pM

SMILES: Cc1c(S(C)(=O)=O)c(-c2cc(F)cc(N3CCN(c4ccc(NS(=O)(=O)c5ccc(N[C@H](CCN6CCC(C(=O)O)CC6)CSc6ccccc6)c(S(=O)(=O)C(F)(F)F)c5)cc4)CC3)c2)c(-c2ccc(Cl)cc2)n1C(C)C [BM-1244]
Ki (Bcl-xL): 135 pM | binding affinities (Ki) for the Bcl isoforms, in words (Bcl isoforms): nanomole to picomole range | EC50 [1]: 300000 pM | SI (specificity for senescent cells) [1]: 66.7 | Ki (Bcl-2): 451 pM | Ki (Bcl-w): 357 pM

Now from value to compound, other results behind:

Ki (Bcl-xL): 45.3 pM | Ki (Bcl-2): 3330 pM | Ki (Bcl-w): 660 pM
SMILES: CCn1c(C)c(C(=O)O)c(-c2cccc(N3CCN(c4ccc(NS(=O)(=O)c5ccc(N[C@H](CCN6CCC(O)CC6)CSc6ccccc6)c(S(=O)(=O)C(F)(F)F)c5)cc4)CC3)c2)c1-c1ccc(Cl)cc1 [BM-957]
EC50 [1]: 300000 pM | SI (specificity for senescent cells) [1]: 11.7

Ki (Bcl-xL): 57.4 pM | Ki (Bcl-2): 3390 pM | Ki (Bcl-w): 538 pM
SMILES: Cc1c(C(=O)O)c(-c2cccc(N3CCN(c4ccc(NS(=O)(=O)c5ccc(N[C@H](CCN6CCC(O)CC6)CSc6ccccc6)c(S(=O)(=O)C(F)(F)F)c5)cc4)CC3)c2)c(-c2ccc(Cl)cc2)n1C(C)C [BM-962]
EC50 [1]: 200000 pM | SI (specificity for senescent cells) [1]: 18.5

Ki (Bcl-xL): 5.73 pM | binding affinities (Ki) for the Bcl isoforms, in words (Bcl isoforms): nanomole to picomole range | Ki (Bcl-2): 179 pM | Ki (Bcl-w): 161 pM
SMILES: CCn1c(C)c(C(=O)NS(C)(=O)=O)c(-c2cccc(N3CCN(c4ccc(NS(=O)(=O)c5ccc(N[C@H](CCN(C)C)CSc6ccccc6)c([N+](=O)[O-])c5)cc4)CC3)c2)c1-c1ccc(Cl)cc1 [BM-1075]
EC50 [1]: 300000 pM | SI (specificity for senescent cells) [1]: 15.3

Ki (Bcl-xL): 295 pM | binding affinities (Ki) for the Bcl isoforms, in words (Bcl isoforms): nanomole to picomole range | Ki (Bcl-2): 448 pM | Ki (Bcl-w): 292 pM
SMILES: Cc1c(S(C)(=O)=O)c(-c2cc(F)cc(N3CCN(c4ccc(NS(=O)(=O)c5ccc(N[C@H](CCN6CCC(O)CC6)CSc6ccccc6)c(S(=O)(=O)C(F)(F)F)c5)cc4)CC3)c2)c(-c2ccc(Cl)cc2)n1C(C)C [BM-1197]
EC50 [1]: 5000 pM | senolytic potency (EC50), in words [1]: potent in the nanomole range | SI (specificity for senescent cells) [1]: 366.7
